Reference: patent publication US20100321430A1, “INK COMPOSITION FOR INK JET RECORDING” (priority 2009, published 2010)

Experiment: Solubility of 1,2-octanediol in aqueous solution containing an alcohol solvent
Assay type: physicochemical
Conditions: for ability to dissolve 1,2-octanediol compared with HED: aqueous solution containing 10% by weight 1,2-octanediol and 10% by weight 1,2-hexanediol, FIGURE
Description: An aqueous solution containing 10% by weight of 1,2-octanediol, which is a water-insoluble alkanediol, was prepared. […] Therefore, the aqueous solution was cloudy.
Five alcohol solvents were each added to 10 g of the aqueous solution until the aqueous solution became transparent. The five alcohol solvents were 1,6-hexanediol (hereinafter referred to as 1,6-HED), 3-methyl-1,5-pentanediol (hereinafter referred to as 3 MPED), 1,5-pentanediol (hereinafter referred to as 1,5-PED), 1,2-hexanediol (hereinafter referred to as HED), and 2,2′-dimethylpropanediol (hereinafter referred to as 2 MPRD).
Another aqueous solution containing 10% by weight of 1,2-octanediol and 10% by weight of 1,2-hexanediol, which is a water-soluble alkanediol, was prepared. The five alcohol solvents were added to this aqueous solution in the same manner as described above until this aqueous solution became transparent.

solubility in water (aqueous solution containing 10% by weight)	SMILES	ability to dissolve 1,2-octanediol compared with HED
not completely dissolved	CCCCCCC(O)CO (centres unmarked) [1,2-octanediol]	
	OCCCCCO [1,5-PED, 1,5-pentanediol]	more capable of dissolving 1,2-octanediol
	OCCCCCCO [1,6-HED, 1,6-hexanediol]	more capable of dissolving 1,2-octanediol
	CC(C)(CO)CO [2 MPRD, 2,2′-dimethylpropanediol]	more capable of dissolving 1,2-octanediol
	CC(CCO)CCO [3 MPED, 3-methyl-1,5-pentanediol]	more capable of dissolving 1,2-octanediol
